According to paper doi:10.1101/2021.04.08.439011v1 (biorxiv, 2021):

Assays:
Conditions in all cases: 0.1 µM; binder
PKAC-beta = PKAC-beta (Homo sapiens, UniProt P22694)
CDK4 = CDK4 (Homo sapiens, UniProt P11802)
MUSK = MUSK (Homo sapiens, UniProt O15146)
DDR2 = DDR2 (Homo sapiens, UniProt Q16832)
TLK1 = TLK1 (Homo sapiens, UniProt Q9UKI8)
ULK2 = ULK2 (Homo sapiens, UniProt Q8IYT8)
STK4 = STK4 (Homo sapiens, UniProt Q13043)
MKK7 = MKK7 (Homo sapiens, UniProt O14733)
PRKX = PRKX (Homo sapiens, UniProt P51817)
PRKX, sequence (P51817 whole entry): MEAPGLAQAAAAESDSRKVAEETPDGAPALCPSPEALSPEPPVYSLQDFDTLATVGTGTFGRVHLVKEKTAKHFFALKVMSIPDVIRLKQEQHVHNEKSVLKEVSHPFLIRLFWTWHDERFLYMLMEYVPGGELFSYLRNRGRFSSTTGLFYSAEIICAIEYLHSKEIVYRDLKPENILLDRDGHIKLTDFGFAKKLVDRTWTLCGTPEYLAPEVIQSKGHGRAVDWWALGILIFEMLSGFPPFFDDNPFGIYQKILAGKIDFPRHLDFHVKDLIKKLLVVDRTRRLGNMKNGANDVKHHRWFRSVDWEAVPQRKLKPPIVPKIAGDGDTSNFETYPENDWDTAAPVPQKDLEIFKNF

CAMK2G = CAMK2G (Homo sapiens, UniProt Q13555)
CAMK2G, sequence (Q13555 whole entry): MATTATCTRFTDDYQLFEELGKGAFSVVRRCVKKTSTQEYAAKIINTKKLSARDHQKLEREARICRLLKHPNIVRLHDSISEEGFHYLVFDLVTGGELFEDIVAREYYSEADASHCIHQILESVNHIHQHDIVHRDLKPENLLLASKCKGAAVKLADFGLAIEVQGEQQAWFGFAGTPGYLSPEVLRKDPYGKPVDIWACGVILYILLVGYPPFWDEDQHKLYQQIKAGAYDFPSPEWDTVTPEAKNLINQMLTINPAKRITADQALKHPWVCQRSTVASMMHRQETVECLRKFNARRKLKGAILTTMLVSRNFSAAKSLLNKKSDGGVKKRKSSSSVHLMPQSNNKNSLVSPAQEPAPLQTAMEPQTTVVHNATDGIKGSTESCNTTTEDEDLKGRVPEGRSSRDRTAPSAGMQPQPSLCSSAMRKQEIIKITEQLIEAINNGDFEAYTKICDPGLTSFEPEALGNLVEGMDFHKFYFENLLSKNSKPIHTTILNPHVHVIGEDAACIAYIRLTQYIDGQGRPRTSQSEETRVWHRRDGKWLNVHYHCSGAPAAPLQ

OSR1 = OSR1 (Homo sapiens, UniProt O95747)
TGFBR2 = TGFBR2 (Homo sapiens, UniProt P37173)
PRKD1 = PRKD1 (Homo sapiens, UniProt Q15139)
PRKD1, sequence (Q15139 whole entry): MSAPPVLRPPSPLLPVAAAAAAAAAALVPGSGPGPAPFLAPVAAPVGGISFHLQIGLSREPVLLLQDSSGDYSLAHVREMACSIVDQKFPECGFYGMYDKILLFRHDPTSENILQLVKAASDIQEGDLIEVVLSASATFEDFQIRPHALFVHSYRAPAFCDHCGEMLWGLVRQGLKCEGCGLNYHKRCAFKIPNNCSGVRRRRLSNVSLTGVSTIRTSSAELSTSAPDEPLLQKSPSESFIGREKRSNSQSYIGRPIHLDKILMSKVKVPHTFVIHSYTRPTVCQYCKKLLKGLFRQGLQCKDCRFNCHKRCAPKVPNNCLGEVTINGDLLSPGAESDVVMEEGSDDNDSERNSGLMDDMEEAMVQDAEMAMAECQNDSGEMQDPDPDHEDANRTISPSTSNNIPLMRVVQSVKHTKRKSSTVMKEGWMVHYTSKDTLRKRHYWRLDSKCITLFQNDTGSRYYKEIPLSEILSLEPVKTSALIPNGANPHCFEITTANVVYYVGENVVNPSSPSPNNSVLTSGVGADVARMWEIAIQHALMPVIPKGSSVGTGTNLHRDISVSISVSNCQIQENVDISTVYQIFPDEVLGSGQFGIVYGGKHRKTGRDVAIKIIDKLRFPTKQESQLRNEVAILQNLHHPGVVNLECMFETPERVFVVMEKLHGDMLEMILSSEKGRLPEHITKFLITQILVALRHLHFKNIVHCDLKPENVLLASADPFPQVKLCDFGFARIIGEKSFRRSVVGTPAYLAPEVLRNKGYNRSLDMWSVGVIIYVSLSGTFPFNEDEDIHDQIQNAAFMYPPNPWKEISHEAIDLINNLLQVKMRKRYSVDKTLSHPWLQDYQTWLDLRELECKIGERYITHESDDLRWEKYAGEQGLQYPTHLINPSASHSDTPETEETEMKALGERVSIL

ALK(L1196M) = ALK(L1196M) (Homo sapiens, UniProt Q9UM73, L1196M)
ALK(L1196M), sequence (Q9UM73 whole entry L1196M): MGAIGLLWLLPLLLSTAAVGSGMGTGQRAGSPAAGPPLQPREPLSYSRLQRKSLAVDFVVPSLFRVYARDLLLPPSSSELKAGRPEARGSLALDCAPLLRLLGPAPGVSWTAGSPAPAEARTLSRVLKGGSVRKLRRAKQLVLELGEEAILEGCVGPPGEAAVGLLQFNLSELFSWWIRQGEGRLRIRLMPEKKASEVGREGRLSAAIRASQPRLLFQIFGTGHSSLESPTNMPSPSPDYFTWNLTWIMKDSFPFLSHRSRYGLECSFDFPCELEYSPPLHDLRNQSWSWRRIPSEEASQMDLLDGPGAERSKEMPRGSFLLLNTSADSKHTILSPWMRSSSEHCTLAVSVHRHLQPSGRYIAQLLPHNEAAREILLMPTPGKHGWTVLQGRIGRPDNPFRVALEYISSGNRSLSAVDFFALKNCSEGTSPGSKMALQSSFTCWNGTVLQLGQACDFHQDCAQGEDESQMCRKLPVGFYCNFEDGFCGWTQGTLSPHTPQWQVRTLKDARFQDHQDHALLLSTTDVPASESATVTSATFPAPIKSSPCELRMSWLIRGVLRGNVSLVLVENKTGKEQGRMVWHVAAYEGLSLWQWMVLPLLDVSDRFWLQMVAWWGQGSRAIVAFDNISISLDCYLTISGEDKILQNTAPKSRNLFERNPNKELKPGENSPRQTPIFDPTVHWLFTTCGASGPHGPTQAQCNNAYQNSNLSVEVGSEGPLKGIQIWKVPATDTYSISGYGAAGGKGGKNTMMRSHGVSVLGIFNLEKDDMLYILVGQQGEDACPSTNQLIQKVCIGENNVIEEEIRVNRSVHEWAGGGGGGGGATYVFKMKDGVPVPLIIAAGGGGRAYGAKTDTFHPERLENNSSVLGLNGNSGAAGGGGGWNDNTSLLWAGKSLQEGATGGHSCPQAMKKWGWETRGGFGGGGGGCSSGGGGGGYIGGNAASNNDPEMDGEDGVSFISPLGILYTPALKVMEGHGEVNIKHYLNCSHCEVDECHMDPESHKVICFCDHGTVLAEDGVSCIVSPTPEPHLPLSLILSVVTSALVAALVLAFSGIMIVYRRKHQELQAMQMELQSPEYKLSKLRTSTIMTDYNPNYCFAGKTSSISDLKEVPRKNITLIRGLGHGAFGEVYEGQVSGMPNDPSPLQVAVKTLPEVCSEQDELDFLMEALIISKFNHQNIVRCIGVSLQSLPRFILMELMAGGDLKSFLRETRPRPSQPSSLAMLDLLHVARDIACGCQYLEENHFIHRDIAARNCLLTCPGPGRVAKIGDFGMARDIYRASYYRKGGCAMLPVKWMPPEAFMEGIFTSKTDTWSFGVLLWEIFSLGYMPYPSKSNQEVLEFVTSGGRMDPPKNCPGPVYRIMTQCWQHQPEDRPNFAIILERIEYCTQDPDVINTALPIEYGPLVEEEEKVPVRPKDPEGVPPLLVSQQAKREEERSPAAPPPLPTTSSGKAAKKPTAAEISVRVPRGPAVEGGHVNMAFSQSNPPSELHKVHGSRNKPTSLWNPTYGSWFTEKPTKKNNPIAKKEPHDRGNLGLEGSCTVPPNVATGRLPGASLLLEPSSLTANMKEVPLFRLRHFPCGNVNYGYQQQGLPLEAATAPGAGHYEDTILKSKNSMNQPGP

MAP3K4 = MAP3K4 (Homo sapiens, UniProt Q9Y6R4)
BTK = BTK (Homo sapiens, UniProt Q06187)
BTK, sequence (Q06187 whole entry): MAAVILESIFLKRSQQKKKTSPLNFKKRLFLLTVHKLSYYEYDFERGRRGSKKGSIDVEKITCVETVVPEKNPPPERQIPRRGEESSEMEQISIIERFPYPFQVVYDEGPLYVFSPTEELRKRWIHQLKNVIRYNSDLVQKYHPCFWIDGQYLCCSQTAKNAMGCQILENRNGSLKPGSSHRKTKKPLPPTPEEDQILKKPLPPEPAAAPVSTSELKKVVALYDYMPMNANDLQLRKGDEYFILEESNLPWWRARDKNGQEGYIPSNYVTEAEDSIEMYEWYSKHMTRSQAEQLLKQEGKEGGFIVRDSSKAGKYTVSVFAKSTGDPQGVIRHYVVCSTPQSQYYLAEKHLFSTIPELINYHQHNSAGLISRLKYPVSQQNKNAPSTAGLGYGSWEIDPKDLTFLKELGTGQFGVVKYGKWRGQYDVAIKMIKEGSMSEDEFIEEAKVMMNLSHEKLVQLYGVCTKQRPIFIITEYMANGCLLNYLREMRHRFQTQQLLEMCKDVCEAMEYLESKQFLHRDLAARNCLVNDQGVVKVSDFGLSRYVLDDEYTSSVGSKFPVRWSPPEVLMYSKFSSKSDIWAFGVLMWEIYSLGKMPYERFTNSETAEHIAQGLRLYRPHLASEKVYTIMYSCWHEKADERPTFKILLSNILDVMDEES

EPHA4 = EPHA4 (Homo sapiens, UniProt P54764)
PIM3 = PIM3 (Homo sapiens, UniProt Q86V86)
PCTK1 = PCTK1 (Homo sapiens, UniProt Q00536)
JNK1 = JNK1 (Homo sapiens, UniProt P45983)
MEK6 = MEK6 (Homo sapiens, UniProt P52564)
DRAK2 = DRAK2 (Homo sapiens, UniProt O94768)
DRAK2, sequence (O94768 whole entry): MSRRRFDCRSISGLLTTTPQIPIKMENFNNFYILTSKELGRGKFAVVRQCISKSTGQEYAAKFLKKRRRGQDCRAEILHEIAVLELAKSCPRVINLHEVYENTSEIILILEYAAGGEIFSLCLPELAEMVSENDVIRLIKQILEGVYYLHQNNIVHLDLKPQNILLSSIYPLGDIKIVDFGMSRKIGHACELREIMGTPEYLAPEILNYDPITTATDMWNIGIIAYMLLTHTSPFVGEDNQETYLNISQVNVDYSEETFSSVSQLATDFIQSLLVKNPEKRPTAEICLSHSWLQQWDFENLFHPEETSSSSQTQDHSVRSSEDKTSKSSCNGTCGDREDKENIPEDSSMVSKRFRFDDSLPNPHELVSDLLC

PIK3CA(Q546K) = PIK3CA(Q546K) (Homo sapiens, UniProt P42336, Q546K)
HIPK3 = HIPK3 (Homo sapiens, UniProt Q9H422)
TBK1 = TBK1 (Homo sapiens, UniProt Q9UHD2)
PKMYT1 = PKMYT1 (Homo sapiens, UniProt Q99640)
GRK1 = GRK1 (Homo sapiens, UniProt Q15835)
GRK1, sequence (Q15835 whole entry): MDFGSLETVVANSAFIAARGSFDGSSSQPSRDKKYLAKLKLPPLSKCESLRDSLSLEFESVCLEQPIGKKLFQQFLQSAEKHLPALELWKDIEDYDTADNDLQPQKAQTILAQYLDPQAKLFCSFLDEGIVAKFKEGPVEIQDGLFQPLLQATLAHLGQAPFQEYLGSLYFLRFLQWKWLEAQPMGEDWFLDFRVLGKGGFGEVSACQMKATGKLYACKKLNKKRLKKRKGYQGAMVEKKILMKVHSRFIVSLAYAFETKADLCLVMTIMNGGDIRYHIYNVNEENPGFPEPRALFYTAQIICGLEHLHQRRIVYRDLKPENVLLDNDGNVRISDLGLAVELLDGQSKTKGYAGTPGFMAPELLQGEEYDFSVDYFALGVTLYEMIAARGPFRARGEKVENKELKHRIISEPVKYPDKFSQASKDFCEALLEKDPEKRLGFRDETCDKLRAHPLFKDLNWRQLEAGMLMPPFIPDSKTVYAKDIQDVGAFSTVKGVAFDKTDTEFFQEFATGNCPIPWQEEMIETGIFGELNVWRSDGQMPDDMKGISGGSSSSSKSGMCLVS

PIK3CA(I800L) = PIK3CA(I800L) (Homo sapiens, UniProt P42336, I800L)
MST4 = MST4 (Homo sapiens, UniProt Q9P289)
MKNK2 = MKNK2 (Homo sapiens, UniProt Q9HBH9)
TXK = TXK (Homo sapiens, UniProt P42681)

**Q.** Which results are given for `CNc1ncc2cc(-c3ccc(-c4cccc(C)n4)cc3Cl)c(=O)n(C[C@H]3OC[C@H](N)CO3)c2n1` [compound 6, G-5555]?
**A.** Percent Control (PKAC-beta): 100%; Percent Control (CDK4): 100%; Percent Control (MUSK): 100%; Percent Control (DDR2): 88%; Percent Control (TLK1): 100%; Percent Control (ULK2): 100%; Percent Control (STK4): 90%; Percent Control (MKK7): 86%; Percent Control (PRKX): 100%; Percent Control (CAMK2G): 100%; Percent Control (OSR1): 99%; Percent Control (TGFBR2): 100%; Percent Control (PRKD1): 68%; Percent Control (ALK(L1196M)): 100%; Percent Control (MAP3K4): 84%; Percent Control (BTK): 87%; Percent Control (EPHA4): 100%; Percent Control (PIM3): 100%; Percent Control (PCTK1): 100%; Percent Control (JNK1): 80%; Percent Control (MEK6): 80%; Percent Control (DRAK2): 66%; Percent Control (PIK3CA(Q546K)): 85%; Percent Control (HIPK3): 86%; Percent Control (TBK1): 100%; Percent Control (PKMYT1): 100%; Percent Control (GRK1): 100%; Percent Control (PIK3CA(I800L)): 87%; Percent Control (MST4): 0.5%; Percent Control (MKNK2): 100%; Percent Control (TXK): 100%
